Experimental data: ChEMBL document CHEMBL1201862, “PubChem BioAssay data set” (2004)
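Dose response: 5 concentrations. Exposure: 48 h. Format: 96-well plates. Endpoint: linear interpolation; highest concentration if not reached. Abbreviation: GI50, concentration required for 50% inhibition of growth.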 Active and inactive are the calls of the source. No stated cut-off is given here; in the data, active = GI50 up to about 1.1 µM and inactive = higher.

Tests used:
Experiment in all cases: NCI tumour cell line growth inhibition, 48 h
786-0 = tested on: 786-0
A498 = tested on: A498
A549 = tested on: A549
ACHN = tested on: ACHN
BT-549 = tested on: BT-549
CAKI-1 = tested on: CAKI-1
CCRF-CEM = tested on: CCRF-CEM
COLO 205 = tested on: COLO 205
DU-145 = tested on: DU-145
EKVX = tested on: EKVX
HCC 2998 = tested on: HCC 2998
HCT-116 = tested on: HCT-116
HCT-15 = tested on: HCT-15
HL-60 = tested on: HL-60
HOP-62 = tested on: HOP-62
HOP-92 = tested on: HOP-92
HT-29 = tested on: HT-29
Hs-578T = tested on: Hs-578T
IGROV-1 = tested on: IGROV-1
K562 = tested on: K562
KM12 = tested on: KM12
LOX IMVI = tested on: LOX IMVI
M14 = tested on: M14
MCF7 = tested on: MCF7
MDA-MB-231 = tested on: MDA-MB-231
MDA-MB-435 = tested on: MDA-MB-435
MDA-N = tested on: MDA-N
MOLT-4 = tested on: MOLT-4
Malme-3M = tested on: Malme-3M
NCI-H23 = tested on: NCI-H23
NCI-H460 = tested on: NCI-H460
NCI-H522 = tested on: NCI-H522
NCI/ADR-RES = tested on: NCI/ADR-RES
OVCAR-3 = tested on: OVCAR-3
OVCAR-4 = tested on: OVCAR-4
OVCAR-5 = tested on: OVCAR-5
OVCAR-8 = tested on: OVCAR-8
PC-3 = tested on: PC-3
RPMI-8226 = tested on: RPMI-8226
RXF 393 = tested on: RXF 393
SF-268 = tested on: SF-268
SF-295 = tested on: SF-295
SF-539 = tested on: SF-539
SK-MEL-28 = tested on: SK-MEL-28
SK-MEL-2 = tested on: SK-MEL-2
SK-MEL-5 = tested on: SK-MEL-5
SK-OV-3 = tested on: SK-OV-3
SN12C = tested on: SN12C
SNB-19 = tested on: SNB-19
SR = tested on: SR
SW-620 = tested on: SW-620
T47D = tested on: T47D
TK-10 = tested on: TK-10
U-251 = tested on: U-251
UACC-257 = tested on: UACC-257
UACC-62 = tested on: UACC-62
UO-31 = tested on: UO-31
NCI-H226 = tested on: NCI-H226
SNB-75 = tested on: SNB-75

COC(=O)[C@@H](NC1(c2ccccc2)c2ccccc2-c2ccccc21)[C@@H](C(=O)OC)N(NC(=O)OCc1ccccc1)C(=O)OCc1ccccc1.COC(=O)[C@@H](NC1(c2ccccc2)c2ccccc2-c2ccccc21)[C@H](C(=O)OC)N(NC(=O)OCc1ccccc1)C(=O)OCc1ccccc1
GI50 (786-0): > 100 µM (inactive) | GI50 (A498): > 100 µM (inactive) | GI50 (A549): > 100 µM (inactive) | GI50 (ACHN): > 100 µM (inactive) | GI50 (BT-549): > 100 µM (inactive) | GI50 (CAKI-1): > 100 µM (inactive) | GI50 (CCRF-CEM): > 100 µM (inactive) | GI50 (COLO 205): > 100 µM (inactive) | GI50 (DU-145): > 100 µM (inactive) | GI50 (EKVX): 21.4 µM (inactive) | GI50 (HCC 2998): 86.9 µM (inactive) | GI50 (HCT-116): > 100 µM (inactive) | GI50 (HCT-15): > 100 µM | GI50 (HL-60): > 100 µM (inactive) | GI50 (HOP-62): > 100 µM (inactive) | GI50 (HOP-92): > 100 µM (inactive) | GI50 (HT-29): > 100 µM (inactive) | GI50 (Hs-578T): > 100 µM (inactive) | GI50 (IGROV-1): > 100 µM (inactive) | GI50 (K562): > 100 µM (inactive) | GI50 (KM12): > 100 µM (inactive) | GI50 (LOX IMVI): > 100 µM (inactive) | GI50 (M14): > 100 µM (inactive) | GI50 (MCF7): > 100 µM (inactive) | GI50 (MDA-MB-231): > 100 µM (inactive) | GI50 (MDA-MB-435): > 100 µM (inactive) | GI50 (MDA-N): > 100 µM (inactive) | GI50 (MOLT-4): > 100 µM (inactive) | GI50 (Malme-3M): 27.4 µM (inactive) | GI50 (NCI-H23): > 100 µM (inactive) | GI50 (NCI-H460): > 100 µM (inactive) | GI50 (NCI-H522): 29.2 µM (inactive) | GI50 (NCI/ADR-RES): > 100 µM (inactive) | GI50 (OVCAR-3): > 100 µM (inactive) | GI50 (OVCAR-4): > 100 µM (inactive) | GI50 (OVCAR-5): > 100 µM (inactive) | GI50 (OVCAR-8): > 100 µM (inactive) | GI50 (PC-3): > 100 µM (inactive) | GI50 (RPMI-8226): > 100 µM (inactive) | GI50 (RXF 393): > 100 µM (inactive) | GI50 (SF-268): > 100 µM (inactive) | GI50 (SF-295): > 100 µM (inactive) | GI50 (SF-539): > 100 µM (inactive) | GI50 (SK-MEL-28): > 100 µM (inactive) | GI50 (SK-MEL-2): > 100 µM (inactive) | GI50 (SK-MEL-5): > 100 µM (inactive) | GI50 (SK-OV-3): > 100 µM (inactive) | GI50 (SN12C): > 100 µM (inactive) | GI50 (SNB-19): > 100 µM (inactive) | GI50 (SR): > 100 µM (inactive) | GI50 (SW-620): > 100 µM (inactive) | GI50 (T47D): > 100 µM (inactive) | GI50 (TK-10): > 100 µM (inactive) | GI50 (U-251): 33.8 µM (inactive) | GI50 (UACC-257): > 100 µM (inactive) | GI50 (UACC-62): > 100 µM (inactive) | GI50 (UO-31): > 100 µM (inactive)

Cc1ccc(C2SC(=N)Nc3c2c(C)nn3C(=O)c2ccncc2)cc1 (stereo not drawn)
GI50 (786-0): > 10 µM (inactive) | GI50 (A549): > 10 µM (inactive) | GI50 (ACHN): > 10 µM (inactive) | GI50 (BT-549): > 10 µM (inactive) | GI50 (CAKI-1): > 10 µM (inactive) | GI50 (CCRF-CEM): > 10 µM (inactive) | GI50 (COLO 205): > 10 µM (inactive) | GI50 (DU-145): > 10 µM (inactive) | GI50 (HCC 2998): > 10 µM (inactive) | GI50 (HCT-116): > 10 µM (inactive) | GI50 (HCT-15): > 10 µM | GI50 (HL-60): > 10 µM (inactive) | GI50 (HOP-62): > 10 µM (inactive) | GI50 (HOP-92): > 10 µM (inactive) | GI50 (HT-29): > 10 µM (inactive) | GI50 (Hs-578T): > 10 µM (inactive) | GI50 (IGROV-1): > 10 µM (inactive) | GI50 (K562): > 10 µM (inactive) | GI50 (KM12): > 10 µM (inactive) | GI50 (LOX IMVI): > 10 µM (inactive) | GI50 (M14): > 10 µM (inactive) | GI50 (MCF7): > 10 µM (inactive) | GI50 (MDA-MB-231): > 10 µM (inactive) | GI50 (MDA-MB-435): > 10 µM (inactive) | GI50 (MDA-N): > 10 µM (inactive) | GI50 (MOLT-4): > 10 µM (inactive) | GI50 (Malme-3M): > 10 µM (inactive) | GI50 (NCI-H226): > 10 µM (inactive) | GI50 (NCI-H23): > 10 µM (inactive) | GI50 (NCI-H460): > 10 µM (inactive) | GI50 (NCI-H522): > 10 µM (inactive) | GI50 (NCI/ADR-RES): > 10 µM (inactive) | GI50 (OVCAR-3): > 10 µM (inactive) | GI50 (OVCAR-4): > 10 µM (inactive) | GI50 (OVCAR-5): > 10 µM (inactive) | GI50 (OVCAR-8): > 10 µM (inactive) | GI50 (PC-3): > 10 µM (inactive) | GI50 (RPMI-8226): > 10 µM (inactive) | GI50 (RXF 393): > 10 µM (inactive) | GI50 (SF-268): > 10 µM (inactive) | GI50 (SF-295): > 10 µM (inactive) | GI50 (SF-539): > 10 µM (inactive) | GI50 (SK-MEL-28): > 10 µM (inactive) | GI50 (SK-MEL-2): > 10 µM (inactive) | GI50 (SK-MEL-5): > 10 µM (inactive) | GI50 (SK-OV-3): > 10 µM (inactive) | GI50 (SN12C): > 10 µM (inactive) | GI50 (SNB-19): > 10 µM (inactive) | GI50 (SNB-75): > 10 µM (inactive) | GI50 (SR): > 10 µM (inactive) | GI50 (SW-620): > 10 µM (inactive) | GI50 (T47D): > 10 µM (inactive) | GI50 (TK-10): > 10 µM (inactive) | GI50 (U-251): > 10 µM (inactive) | GI50 (UACC-257): > 10 µM (inactive) | GI50 (UACC-62): > 10 µM (inactive)
